Results as given in ChEMBL document CHEMBL4828719, “H2dpa derivatives containing pentadentate ligands: An acyclic adjuvant potentiates meropenem activity in vitro and in vivo against metallo-β-lactamase-producing Enterobacterales” (Eur J Med Chem, 2021).
Values after ≈ are worked out from the molar mass of the structure shown. Active and inactive are the calls of the source. No cut-off for these calls is given here.

Experiments:
[1] = Zinc chelation-dependent inhibition of IMP-4 (unknown origin) expressed in Escherichia coli BL21 (DE3) using imipenem as substrate preincubated with enzyme for 5 to 10 mins followed by substrate addition
[2] = Zinc chelation-dependent inhibition of VIM-2 (unknown origin) expressed in Escherichia coli BL21 (DE3) using nitrocefin as substrate preincubated with enzyme for 5 to 10 mins followed by substrate addition
[3] = Zinc chelation-dependent inhibition of NDM-1 (unknown origin) expressed in Escherichia coli BL21 (DE3) using meropenem as substrate preincubated with enzyme for 5 to 10 mins followed by substrate addition
[4] = Zinc chelation-dependent inhibition of NDM-1 (unknown origin) expressed in Escherichia coli DH5 alpha using meropenem as substrate preincubated with enzyme for 5 mins followed by substrate addition in the presence of zinc sulfate
[5] = Zinc chelation-dependent inhibition of IMP-1 (unknown origin) expressed in Escherichia coli DH5 alpha using imipenem as substrate preincubated with enzyme for 5 mins followed by substrate addition in the presence of zinc sulfate
[6] = Zinc chelation-dependent inhibition of VIM-2 (unknown origin) expressed in Escherichia coli DH5 alpha using nitrocefin as substrate preincubated with enzyme for 5 mins followed by substrate addition in presence of zinc sulfate
[7] = tested on: Escherichia coli; assay: Antibiotic adjuvant activity against IMP-4 producing Escherichia coli DH5alpha assessed as potentiation of meropenem-induced antibacterial activity incubated for 16 to 20 hrs by agar disc diffusion assay; type: functional, organism-based; settings: DH5[alpha], time 16-20 hrs
[8] = tested on: Escherichia coli; assay: Antibacterial activity against NDM-1 producing Escherichia coli DH5alpha assessed as decrease in bacterial growth incubated for 16 to 20 hrs by CLSI based microdilution method; type: functional; settings: DH5[alpha], time 16-20 hrs
[9] = tested on: Escherichia coli; assay: Synergistic antibacterial activity against IMP-4 producing Escherichia coli DH5alpha assessed as fractional inhibitory concentration index incubated for 16 to 20 hrs in presence of meropenem by checkerboard assay; type: functional, DH5[alpha]; settings: time 16-20 hrs
[10] = tested on: Escherichia coli; assay: Antibacterial activity against IMP-4 producing Escherichia coli DH5alpha assessed as decrease in bacterial growth incubated for 16 to 20 hrs by CLSI based microdilution method; type: functional; settings: DH5[alpha], time 16-20 hrs
[11] = tested on: Escherichia coli; assay: Antibiotic adjuvant activity against VIM-1 producing Escherichia coli DH5alpha assessed as potentiation of meropenem-induced antibacterial activity incubated for 16 to 20 hrs by agar disc diffusion assay; type: functional, organism-based; settings: DH5[alpha], time 16-20 hrs
[12] = tested on: Escherichia coli; assay: Synergistic antibacterial activity against NDM-1 producing Escherichia coli DH5alpha assessed as fractional inhibitory concentration index incubated for 16 to 20 hrs in presence of meropenem by checkerboard assay; type: functional, DH5[alpha]; settings: time 16-20 hrs
[13] = tested on: Escherichia coli; assay: Synergistic antibacterial activity against VIM-1 producing Escherichia coli DH5alpha assessed as fractional inhibitory concentration index incubated for 16 to 20 hrs in presence of meropenem by checkerboard assay; type: functional, DH5[alpha]; settings: time 16-20 hrs
[14] = tested on: Escherichia coli; assay: Antibacterial activity against VIM-1 producing Escherichia coli DH5alpha assessed as decrease in bacterial growth incubated for 16 to 20 hrs by CLSI based microdilution method; type: functional; settings: DH5[alpha], time 16-20 hrs
[15] = tested on: Escherichia coli; assay: Antibiotic adjuvant activity against NDM-1 producing Escherichia coli DH5alpha assessed as potentiation of meropenem-induced antibacterial activity incubated for 16 to 20 hrs by agar disc diffusion assay; type: functional, organism-based; settings: DH5[alpha], time 16-20 hrs

IC50 [1] [µM]	IC50 [2] [µM]	IC50 [3] [µM]	Activity [4]	Activity [5]	Activity [6]	MIC [8] [µg/mL]	MIC [10] [µg/mL]	MIC [14] [µg/mL]	SMILES	Activity [7]	fractional inhibitory concentration index (FICI) [9]	Activity [11]	fractional inhibitory concentration index (FICI) [12]	fractional inhibitory concentration index (FICI) [13]	Activity [15]
9.6	> 200	4							N[C@@H](CN[C@@H](CN[C@@H](CC(=O)O)C(=O)O)C(=O)O)C(=O)O						
12.5	> 200	1.75	inactive	inactive	inactive				O=C(O)CN(CCN(CC(=O)O)CC(=O)O)CC(=O)O [EDETIC ACID]						
			Active	Active	Active				C[C@H](CS)C(=O)N1CCC[C@H]1C(=O)O [CAPTOPRIL]						
4.84	2.03	1.65				128 (≈ 324 µM)	128 (≈ 324 µM)	128 (≈ 324 µM)	O=C(O)c1cccc(CN(CCP(=O)(O)O)Cc2cccc(C(=O)O)n2)n1	Active	0.14	Active	0.07	0.07	Active
1.04	1.05	1.54				128 (≈ 446 µM)	128 (≈ 446 µM)	128 (≈ 446 µM)	O=C(O)c1cccc(CNCc2cccc(C(=O)O)n2)n1	Active	0.14	Active	0.07	0.07	Active
3.88	1.53	1.67				128 (≈ 371 µM)	128 (≈ 371 µM)	128 (≈ 371 µM)	O=C(O)CN(Cc1cccc(C(=O)O)n1)Cc1cccc(C(=O)O)n1	Active	0.14	Active	0.07	0.07	Active
